Earlier results as cited in patent publication US20170007591A1, “Composition to Mitigate Spikes in Blood Sugar” (Panacea Scientific, Inc., priority 2015, published 2017).

What was measured:
δ-opioid receptor = δ-opioid receptor (Homo sapiens, UniProt P41143); conditions: acts as non-selective antagonist
μ-opioid receptor = μ-opioid receptor (Homo sapiens, UniProt P35372); conditions: acts as non-selective antagonist
CYP2C9 = CYP2C9 (Homo sapiens, UniProt P11712); conditions: in humans
κ-opioid receptor = κ-opioid receptor (Homo sapiens, UniProt P41145); conditions: acts as non-selective antagonist
[1] = rats; 20 mg piperine dose with 2 g/kg dose of curcumin

Chain of κ-opioid receptor (P41145 whole entry): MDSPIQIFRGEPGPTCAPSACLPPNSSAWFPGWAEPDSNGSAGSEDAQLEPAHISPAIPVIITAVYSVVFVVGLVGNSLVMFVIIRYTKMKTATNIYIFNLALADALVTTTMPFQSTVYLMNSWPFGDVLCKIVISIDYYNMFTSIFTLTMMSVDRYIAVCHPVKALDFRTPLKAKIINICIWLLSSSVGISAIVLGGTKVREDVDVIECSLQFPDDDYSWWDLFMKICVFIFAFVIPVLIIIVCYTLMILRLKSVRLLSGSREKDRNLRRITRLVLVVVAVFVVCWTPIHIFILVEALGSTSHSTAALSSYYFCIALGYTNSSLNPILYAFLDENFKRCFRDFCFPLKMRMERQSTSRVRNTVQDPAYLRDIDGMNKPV
Chain of μ-opioid receptor (P35372 whole entry): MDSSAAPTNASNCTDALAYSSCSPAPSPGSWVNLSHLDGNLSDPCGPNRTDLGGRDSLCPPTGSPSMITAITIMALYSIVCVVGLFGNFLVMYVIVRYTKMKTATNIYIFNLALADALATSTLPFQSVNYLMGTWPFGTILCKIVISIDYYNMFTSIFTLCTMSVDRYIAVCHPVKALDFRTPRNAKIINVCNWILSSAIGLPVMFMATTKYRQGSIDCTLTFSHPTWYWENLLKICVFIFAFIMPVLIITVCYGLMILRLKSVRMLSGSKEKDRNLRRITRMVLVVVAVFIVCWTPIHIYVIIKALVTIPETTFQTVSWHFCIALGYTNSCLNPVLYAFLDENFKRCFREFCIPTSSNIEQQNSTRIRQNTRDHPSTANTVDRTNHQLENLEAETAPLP
Chain of CYP2C9 (P11712 whole entry): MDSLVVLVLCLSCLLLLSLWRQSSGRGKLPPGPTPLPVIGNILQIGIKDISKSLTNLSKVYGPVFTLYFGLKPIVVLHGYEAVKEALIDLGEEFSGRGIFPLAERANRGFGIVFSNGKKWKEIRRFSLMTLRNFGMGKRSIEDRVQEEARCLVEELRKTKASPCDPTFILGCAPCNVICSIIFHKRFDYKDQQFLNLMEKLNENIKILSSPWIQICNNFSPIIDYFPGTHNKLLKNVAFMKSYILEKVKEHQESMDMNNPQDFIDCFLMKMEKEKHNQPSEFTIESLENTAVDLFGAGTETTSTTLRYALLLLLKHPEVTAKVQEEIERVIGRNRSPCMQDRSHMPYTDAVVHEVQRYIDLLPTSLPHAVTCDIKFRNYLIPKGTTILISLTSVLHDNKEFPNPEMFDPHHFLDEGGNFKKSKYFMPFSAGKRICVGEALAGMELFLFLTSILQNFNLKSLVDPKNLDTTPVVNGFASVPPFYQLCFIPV
Chain of δ-opioid receptor (P41143 whole entry): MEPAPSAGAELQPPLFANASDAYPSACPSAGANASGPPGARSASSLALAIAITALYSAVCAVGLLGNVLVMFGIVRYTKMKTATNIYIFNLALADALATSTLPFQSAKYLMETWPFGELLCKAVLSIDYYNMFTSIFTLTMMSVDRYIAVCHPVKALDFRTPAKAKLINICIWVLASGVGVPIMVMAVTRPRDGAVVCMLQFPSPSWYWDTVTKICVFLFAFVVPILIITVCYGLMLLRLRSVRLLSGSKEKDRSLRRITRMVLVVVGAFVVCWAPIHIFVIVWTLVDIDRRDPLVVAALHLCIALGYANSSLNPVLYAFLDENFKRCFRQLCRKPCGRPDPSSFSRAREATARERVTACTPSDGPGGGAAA

Compound | affinity for δ-opioid receptor (δ-opioid receptor) | affinity for μ-opioid receptor (μ-opioid receptor) | inhibition of CYP2C9 (CYP2C9) | affinity for κ-opioid receptor (κ-opioid receptor) | increase of the bioavailability of curcumin [1] [%]
O=c1cc(-c2ccc(O)cc2)oc2cc(O)cc(O)c12 [apigenin, 4′,5,7-trihydroxyflavone] | nonomolar affinity | nonomolar affinity | inhibits the enzyme CYP2C9 | nonomolar affinity | 
O=C(/C=C/C=C/c1ccc2c(c1)OCO2)N1CCCCC1 [piperine] |  |  |  |  | 154
